# Test results from patent US8778971B2, “Medicinal treatment of dermal diseases in companion animals” (Bridge Pharma, Inc., priority 2012, dated 2014).
# Marks after values point to notes of the source that are not given here.
# How the values were obtained:
# histamine H1-receptors = histamine H1-receptors (Homo sapiens, UniProt P35367); experiment: H1 receptor binding, [3H]pyrilamine ligand; details: human recombinant receptors, read-out: H-1/IC50
# Description: H1 receptor binding studies were conducted utilizing human recombinant receptors. In the studies shown herein, affinities of the test compounds for histamine H1-receptors were assessed using a binding assay, where [^3H]pyrilamine was used as the ligand and the test compounds were used at increasing concentrations. The specific binding of the radioactive ligand to the receptor was defined as the difference between total binding and nonspecific binding, determined in the presence of excess unlabeled ligand.
# [1] = tested on: histamine-induced wheal response; experiment: Antihistaminic activity in vivo, intradermal histamine wheal; parameters: species or system rats; details: rat; for Histamine wheal area: 60 min before histamine; for Saline wheal area: histamine vehicle injection; for Histamine effect: histamine minus saline
# Description: Male rats (150-200 g) were fasted overnight and twelve hours after dorsal depilation, the animals were orally pretreated with the test compound(s). Four dorsal test areas were marked with permanent ink, carefully avoiding the area closest to the spine. […] Two intradermal injections of the vehicle for the histamine solution were also performed. […] Twenty minutes were allowed for the wheal response to fully develop, whereupon the animals were euthanized and the dorsal skin with the intradermal wheals were deflected. The blue spotted areas were measured in square millimeters and the duplicate wheal areas were averaged. […] The inhibition was calculated in percent difference from said baseline values.
# croton oil-treated ears [2] = experiment: Croton oil ear inflammation, systemic (ip) administration; assay type: in vivo; details: mice, 10 mg/kg ip
# Description: In order to investigate the effects of systemic administration of the test compounds in dermal inflammation, a croton oil model was used as is known in the art. This test consists of topical application of 20 μl of 1.0% croton oil to each ear of male mice, weighing 28-32 g. […] Application of the croton oil results in an inflammatory response. The weight of croton oil-treated ears was determined and the percent increase in ear weight is calculated. Test articles were dosed systemically (ip). […] All results represent mean ear weights (±S.E.M.) from 10 ears.
# dogs = experiment: Sedative effects in dogs, cross-over oral dosing; assay type: in vivo; details: for Frequency of sedation: 20 mg/kg/day oral
# Description: Sedation studies in dogs were performed according to a cross-over protocol, where the dogs were administered once daily the test articles orally at a dose of 20 mg/kg bodyweight that in a previous toxicology study was marginally toxic in dogs with equal plasma concentrations of R-norketotifen and S-norketotifen.
# The test articles were administered in gelatin capsules and vehicle-capsules were empty. All dogs were healthy beagles (four males and two females), age 24-36 months, weighing 7.8-10.6 kg. The dogs were dosed at 9-10 AM and had been fasted overnight before dosing. There was a washout period of at least three days in all dogs between the tests. All assessments of sedation/sleepiness were made by a qualified (D.V.M.) scientist with extensive experience (>15 years) in studies with conscious laboratory dogs. The test articles were in the form of hydrogen fumarate salts.
# It had previously been observed that dogs rarely express sedation in response to oral administration of benzocycloheptathiophene compounds on the first day of dosing and the dogs were therefore administered the test articles for three consecutive days.
# rats = experiment: Acute toxicity, Up-and-Down Procedure; assay type: in vivo; details: RAT, hydrogen fumarate salts
# Description: Acute toxicological studies were performed in rats (Sprague-Dawley; M and F; 200-250 grams). The animal-sparing Up-and-Down Procedure (FDA, OECD) was used. Both oral and intravenous toxicity tests were performed.
# Both compounds were administered as hydrogen fumarate salts.
# croton oil-treated ears [3] = experiment: Modified croton oil ear inflammation, topical cream; assay type: in vivo; details: mice, 1.0% cream topical
# Description: In order to investigate the effects of topical administration of the test compounds in dermal inflammation, a modified croton oil model was used. […] The cream was then removed and a solution of 1% croton oil in 20 μl acetone was applied to both ears. […] Cream was wiped from the ears and ears were removed and weighed. […] All results represent mean ear weights (±S.E.M.) from 8 ears.
# [4] = tested on: histamine-induced pruritus; experiment: Histamine-induced pruritus, topical cream; assay type: in vivo; details: mice, 1.0% cream topical 60 min before histamine
# Description: Antipruritic effects were tested in vivo in CD-1 female mice aged 10-12 weeks, according to methods known in the art. The hair was clipped over the rostral part of the back at the interscapular level of the mice one day before dosing. Before testing, the mice were placed in individual clear plastic cages for at least one hour for acclimation. […] Lanolin was weighed and liquified by submerging the vessel containing lanolin in hot water. While the lanolin was liquid, it was rapidly nixed (by vortexing) with the 2.5% norketotifen solution in ethanol, resulting in a 1.0% solution. […] A cream containing 60% lanolin/40% ethanol served as control.
# Malassezia pachydermatis = experiment: Antimicrobial test, Malassezia study; assay type: cell-based; details: after 24 hours
# Description: The test article (norketotifen) was weighed and diluted into PBS to final concentrations of 0.210% and 0.035% before use. A 5 mL volume of the Test Article was aliquoted to a sterile 15 mL tube and the Malassezia sp (for example M. pachydermatis) were added at target concentrations of approx. 1.0×10^6 CFU/mL. The resulting mixture was vortexed thoroughly and incubated at room temperature for 7 days. A 0.500 mL aliquot of control and test tubes were harvested in 9.5 mL of D/E broth and any surviving test microorganisms were enumerated per standard dilution and plating techniques. Reductions were compared to a PBS Control at Time Zero and replicate tests were performed.
# [5] = Solubility of norketotifen in non-aqueous solvents; assay type: physicochemical
# Description: The hydrophobic ointment was prepared by dissolving norketotifen in propylene glycol. […] Next, glyceryl stearate, cetyl alcohol, and white petrolatum were added to a suitable container and heated to 65-70° C. This heating step melts the surfactants and the petrolatum. Next, norketotifen solution was slowly added and the composition mixed until the solvent was dispersed. Finally, the composition was cooled with mixing to allow the ointment to thicken.
# Sequence of histamine H1-receptors (P35367 whole entry): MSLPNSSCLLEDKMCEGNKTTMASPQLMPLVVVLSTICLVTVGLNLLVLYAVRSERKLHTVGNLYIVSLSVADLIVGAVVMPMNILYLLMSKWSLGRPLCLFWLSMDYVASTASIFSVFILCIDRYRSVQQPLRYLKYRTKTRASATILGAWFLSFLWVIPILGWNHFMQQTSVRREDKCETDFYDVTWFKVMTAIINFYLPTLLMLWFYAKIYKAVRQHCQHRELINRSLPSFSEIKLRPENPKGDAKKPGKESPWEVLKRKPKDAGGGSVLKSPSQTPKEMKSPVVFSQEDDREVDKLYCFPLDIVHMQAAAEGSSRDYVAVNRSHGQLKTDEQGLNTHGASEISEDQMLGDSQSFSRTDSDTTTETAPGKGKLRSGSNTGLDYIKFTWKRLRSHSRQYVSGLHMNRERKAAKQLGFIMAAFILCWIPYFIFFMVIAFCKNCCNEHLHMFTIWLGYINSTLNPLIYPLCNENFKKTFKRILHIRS
smiles,measurement,setting,value
"O=C1Cc2ccccc2C(=C2CCNCC2)c2ccsc21 (racemic) [Norketotifen, (RS)-4-(piperidylidene)-9,10-dihydro-4H-benzo-(4,5)-cyclohepta-(1,2-b) thiophene-10-one]",IC50,histamine H1-receptors,11 nM
same,Histamine wheal area,[1]; oral 1.0 mg/kg,114 ± 8 mm^2
same,Saline wheal area,[1]; oral 1.0 mg/kg,22 ± 1 mm^2
same,Histamine effect,[1]; oral 1.0 mg/kg,92 mm^2
same,inhibition at 1 mg/kg,"[1]; oral 1.0 mg/kg, versus vehicle baseline",2%
same,Histamine wheal area,[1]; oral 10 mg/kg,39 ± 2 mm^2
same,Saline wheal area,[1]; oral 10 mg/kg,22 ± 1 mm^2
same,Histamine effect,[1]; oral 10 mg/kg,17 mm^2
same,inhibition at 10 mg/kg,"[1]; oral 10 mg/kg, versus vehicle baseline",82%
same,Histamine wheal area,[1]; oral 50 mg/kg,10 ± 1 mm^2
same,Saline wheal area,[1]; oral 50 mg/kg,12 ± 1 mm^2
same,Histamine effect,[1]; oral 50 mg/kg,0 mm^2
same,inhibition at 50 mg/kg,"[1]; oral 50 mg/kg, versus vehicle baseline",100%
same,Average Ear weight ±SEM,croton oil-treated ears [2]; 90 min,34 ± 1 mg
same,Average Ear weight ±SEM,croton oil-treated ears [2]; 120 min,40 ± 1 mg
same,Frequency of sedation,dogs; DAY 1,0/6
same,Frequency of sedation,dogs; DAY 2,0/6
same,Frequency of sedation,dogs; DAY 3,0/6
same,Sedation in dogs (in words),dogs; oral,did not cause sedation in dogs
same,Acute toxicity (estimated LD50),rats; intravenous,10 to 15 mg/kg
same,Acute toxicity (estimated LD50),rats; oral,1500 to 2000 mg/kg
same,Average Ear Weight ±S.E.M,croton oil-treated ears [3]; 0 (predose) min after croton oil,36 ± 1 mg
same,Average Ear Weight ±S.E.M,croton oil-treated ears [3]; 30 min after croton oil,36 ± 1 mg
same,Average Ear Weight ±S.E.M,croton oil-treated ears [3]; 60 min after croton oil,37 ± 2 mg
same,Average Ear Weight ±S.E.M,croton oil-treated ears [3]; 90 min after croton oil,36 ± 2 mg
same,Bouts as % of Vehicle Controls,[4],42 ** %
same,Bouts/40 min,[4],61 ± 4
same,Bouts as % of Vehicle Controls,[4]; listed as RS-norketotifen,42%
same,Reduction of Malassezia pachydermatis,Malassezia pachydermatis; 0.035% norketotifen,99.8%
same,Reduction of Malassezia pachydermatis,Malassezia pachydermatis; 0.2% norketotifen,99.995%
same,Solubility,"[5]; formulation G1009, mixture of two polyethylene glycols",about 1.0%
same,Solubility,[5]; in propylene glycol,about 1.0%
